In patent publication US5604262A, “Topical antimicrobial agents” (Research Corporation Technologies, Inc., priority 1995, dated 1997):
In brackets after ≈: the same amount, converted by molar mass.

Columns and labels:
[1] = system: Bacillus subtilis ATCC 9372; experiment: MIC by two-fold serial broth dilution; format: cell-based; settings: B. subtilis; for MIC: Bacillus subtilis, ATCC9372, 48 h, NYG broth, two days, turbidity OD 660 nm
Description: (§1) The microorganisms tested were from the American Type Culture Collection (Rockville, Md.). They are Bacillus subtilis ATCC 9372, Brevibacterium ammoniagenes ATCC 6872, Staphylococcus aureus ATCC 12598, Streptococus mutans ATCC 25175, Propionibacterium acnes ATCC 11827, Pseudimonas aeruginosa ATCC 10145, Enterobacter aerogenes ATCC 13048, Eschericia coli ATCC 9637, Proteus vulgaris ATCC […], Saccharomyces cerevisiae ATCC 7754, Candida utilis ATCC 9226, Pityrosporum ovale ATCC 14521, Penicillium chrysogenum ATCC 10106 and Trichophyton mentagrophytes ATCC 18748.
(§2) The bacterial culture media except for S. mutans was 0.8% nutrient broth (BBL), 0.5% yeast Extract (Difco) and 0.1% glucose (NYG broth). S. mutans was cultured in 3.7% brain heart infixsion broth (Difco). All fungi, except P. ovale and T. mentagrophytes were cultured in a 2.5% malt extract broth (BBL). P. ovale was cultured in 1% bactopeptone (Difco), 0.5% yeast extract, 1% glucose and 0.1% corn oil. For T. mentagrophytes the culture media was 1% bactopeptone and 4% glucose.
(§3) Freeze dried samples were prepared for testing as follows. B. subtilis, S. cerevisiae, C. utilis, and P. ovale, were shake-cultured for two days at 30° C. P. chrysogenum and T. mentagrophytes were shake-cultured for 5 days at 30° C. B. ammoniagenes and E. aerogenes were stationarily cultured at 30° C. S. aureus, S. mutans, P. acnes, P. aeruginosa, E. coli and P. vulgaris were stationarily cultured at 37° C.
(§4) The minimum inhibitory concentration (MIC) of the 3-alken-2-ones (compounds 1-4, 6-8) and 3,13-tetradecadien-2-one (compound 5) was performed using a two-fold serial broth dilution. Each test compound was dissolved in DMF and 30 μL of this sample was dissolved in 3 mL of the applicable medium. A 30 μL sample of the previously described culture of each microorganism was added to the various medium solutions. After two days, the cultures of B. subtilis, S. cerevisiae, C. utilis B. ammoniagenes, E. aerogenes, S. aureus, S. mutans, P. acnes, P. aeruginosa, E. coli and P. vulgaris were examined for turbidity (OD at 660 nm). The fungi, P. ovale, P. chrysogenum and T. mentagrophytes, were examined visually for growth at 3 days (P. ovale) and 5 days (P. chrysogenum and T. mentagrophytes). The MIC was determined as the lowest concentration for each compound that no growth was observed. The highest concentration used in these tests was 800 μg/mL.

[2] = system: Brevibacterium ammoniagenes ATCC 6872; experiment: MIC by two-fold serial broth dilution; format: cell-based; settings: B. ammoniagenes; for MIC: Corynebacterium ammoniagenes, ATCC6872, 48 h, NYG broth, two days, turbidity OD 660 nm
Description: as §1, §2, §3, §4

[3] = system: Enterobacter aerogenes ATCC 13048; experiment: MIC by two-fold serial broth dilution; format: cell-based; settings: E. aerogenes; for MIC: Klebsiella aerogenes, ATCC13048, 48 h, NYG broth, two days, turbidity OD 660 nm
Description: as §1, §2, §3, §4

[4] = system: Eschericia coli ATCC 9637; experiment: MIC by two-fold serial broth dilution; format: cell-based; settings: E. coli; for MIC: Escherichia coli, ATCC9637, 48 h, NYG broth, two days, turbidity OD 660 nm
Description: as §1, §2, §3, §4

[5] = system: Penicillium chrysogenum ATCC 10106; experiment: MIC by two-fold serial broth dilution; format: cell-based; settings: P. chrysogenum; for MIC: Penicillium chrysogenum, ATCC10106, 120 h, malt extract broth, 5 days, visual
Description: as §1, §2, §3, §4

[6] = system: Pityrosporum ovale ATCC 14521; experiment: MIC by two-fold serial broth dilution; format: cell-based; settings: P. ovale; for MIC: 72 h, bactopeptone/yeast extract/glucose/corn oil, 3 days, visual
Description: as §1, §2, §3, §4

[7] = system: Propionibacterium acnes ATCC 11827; experiment: MIC by two-fold serial broth dilution; format: cell-based; settings: P. acnes; for MIC: Cutibacterium acnes, ATCC11827, 48 h, NYG broth, two days, turbidity OD 660 nm
Description: as §1, §2, §3, §4

[8] = system: Proteus vulgaris ATCC 133315; experiment: MIC by two-fold serial broth dilution; format: cell-based; settings: ATCC133315, 48 h, P. vulgaris, NYG broth, two days, turbidity OD 660 nm
Description: as §1, §2, §3, §4

[9] = system: Pseudimonas aeruginosa ATCC 10145; experiment: MIC by two-fold serial broth dilution; format: cell-based; settings: P. aeruginosa; for MIC: Pseudomonas aeruginosa, ATCC10145, 48 h, NYG broth, two days, turbidity OD 660 nm
Description: as §1, §2, §3, §4

[10] = system: Saccharomyces cerevisiae ATCC 7754; experiment: MIC by two-fold serial broth dilution; format: cell-based; settings: S. cerevisiae; for MIC: Saccharomyces cerevisiae, ATCC7754, 48 h, malt extract broth, two days, turbidity OD 660 nm
Description: as §1, §2, §3, §4

[11] = system: Staphylococcus aureus ATCC 12598; experiment: MIC by two-fold serial broth dilution; format: cell-based; settings: S. aureus; for MIC: Staphylococcus aureus, ATCC12598, 48 h, NYG broth, two days, turbidity OD 660 nm
Description: as §1, §2, §3, §4

[12] = system: Streptococus mutans ATCC 25175; experiment: MIC by two-fold serial broth dilution; format: cell-based; settings: S. mutans; for MIC: Streptococcus mutans, ATCC25175, 48 h, brain heart infusion broth, two days, turbidity OD 660 nm
Description: as §1, §2, §3, §4

[13] = system: Trichophyton mentagrophytes ATCC 18748; experiment: MIC by two-fold serial broth dilution; format: cell-based; settings: ATCC18748, 120 h, T. mentagrophytes, bactopeptone/glucose, 5 days, visual
Description: as §1, §2, §3, §4

Candia utilis ATCC 9226 = experiment: MIC by two-fold serial broth dilution; format: cell-based, Candida utilis; settings: C. utilis; for MIC: Williopsis jadinii, ATCC9226, 48 h, malt extract broth, two days, turbidity OD 660 nm
Description: as §1, §2, §3, §4

S. mutans = settings: Kubo et al. 1993; cited from earlier work
[14] = background statement; cited from earlier work
Pr. acnes = settings: Kubo et al. 1994; cited from earlier work

| Molecule | MIC [1] [µg/mL] | MIC [2] [µg/mL] | MIC [3] [µg/mL] | MIC [4] [µg/mL] | MIC [5] [µg/mL] | MIC [6] [µg/mL] | MIC [7] [µg/mL] | MIC [8] [µg/mL] | MIC [9] [µg/mL] | MIC [10] [µg/mL] | MIC [11] [µg/mL] | MIC [12] [µg/mL] | MIC [13] [µg/mL] | MIC (Candia utilis ATCC 9226) [µg/mL] | other results |
| --- | --- | --- | --- | --- | --- | --- | --- | --- | --- | --- | --- | --- | --- | --- | --- |
| CCCCCCCCC/C=C/C(C)=O [Compound 3, (E)-3-Tridecen-2-one] | 100 (≈ 0.509 mM) | 100 (≈ 0.509 mM) | > 800 | > 800 | 800 (≈ 4.07 mM) | 100 (≈ 0.509 mM) | 12.5 (≈ 0.0637 mM) | 800 (≈ 4.07 mM) | > 800 | > 800 | 50 (≈ 0.255 mM) | 25 (≈ 0.127 mM) | 25 (≈ 0.127 mM) | > 800 | activity (in words) [1]: showed activity; activity (in words) [2]: showed activity; activity (in words) [3]: not active; activity (in words) [4]: not active; activity (in words) [5]: Weak activity; activity (in words) [6]: moderate inhibition; activity (in words) [7]: showed activity; activity (in words) [9]: not active; activity (in words) [10]: no activity; activity (in words) [11]: showed activity; activity (in words) [12]: showed activity; activity (in words) (Candia utilis ATCC 9226): no activity |
| CC(=O)/C=C/C1=C(C)CCCC1(C)C [β-ionone] | – | – | – | – | – | – | – | – | – | – | – | – | – | – | antibacterial activity (in words) (S. mutans): moderate antibacterial activity |
| CCCCCCCCCCC/C=C/C(C)=O [Compound 6, (E)-3-Pentadecen-2-one] | > 800 | > 800 | > 800 | > 800 | > 800 | 400 (≈ 1.78 mM) | 6.25 (≈ 0.0279 mM) | > 800 | > 800 | > 800 | > 800 | 200 (≈ 0.891 mM) | 800 (≈ 3.57 mM) | > 800 | – |
| ionone | – | – | – | – | – | – | – | – | – | – | – | – | – | – | allergic skin reactions [14]: can cause allergic skin reactions |
| CC(=O)CCC=C(C)CCC=C(C)CCC=C(C)C [farnesylacetone] | – | – | – | – | – | – | – | – | – | – | – | – | – | – | activity against Pr. acnes (in words) (Pr. acnes): inactive |
| C=CCCCCCCCC/C=C/C(C)=O [Compound 5, (E)-3,13-Tetradecadien-2-one] | > 800 | > 800 | > 800 | > 800 | 800 (≈ 3.84 mM) | 200 (≈ 0.96 mM) | 12.5 (≈ 0.06 mM) | > 800 | > 800 | > 800 | > 800 | 25 (≈ 0.12 mM) | 12.5 (≈ 0.06 mM) | > 800 | – |
| CC(C)=CCCC(C)=CCCC(C)=CCO [farnesol] | – | – | – | – | – | – | – | – | – | – | – | – | – | – | activity against Pr. acnes (in words) (Pr. acnes): exhibited activity |
| CCCCCCCCCC/C=C/C(C)=O [Compound 4, (E)-3-Tetradecen-2-one] | > 800 | > 800 | > 800 | > 800 | 800 (≈ 3.8 mM) | 100 (≈ 0.475 mM) | 12.5 (≈ 0.0594 mM) | > 800 | > 800 | > 800 | > 800 | 25 (≈ 0.119 mM) | 12.5 (≈ 0.0594 mM) | > 800 | activity (in words) [3]: not active; activity (in words) [4]: not active; activity (in words) [5]: Weak activity; activity (in words) [6]: moderate inhibition; activity (in words) [7]: showed activity; activity (in words) [9]: not active; activity (in words) [10]: no activity; activity (in words) [12]: showed activity; activity (in words) (Candia utilis ATCC 9226): no activity |
